Drawing on PubChem BioAssay (NCI), this text covers TGI for 16 molecules.

Holding throughout (experiment): NCI tumour cell line growth inhibition, 48 h
Test [1] relates to SR leukemia.
The subject of test [2] is KM12 colon.
The subject of test [3] is HL-60(TB) leukemia.
Test [4] concerns OVCAR-8 ovarian.
Test [5] relates to RPMI-8226 leukemia.
Test [6] relates to UACC-62 melanoma.
Test [7] deals with HT29 colon.
In test [8] the test system is MCF7 breast.
For test [9], the system named is NCI/ADR-RES ovarian.
The subject of test [10] is SNB-19 CNS.
Test [11] has as its system SNB-75 CNS.
The test system of test [12] is SK-MEL-2 melanoma.
In test [13] the test system is TK-10 renal.
Test [14] deals with A498 renal.
Test [15] has as its system SF-295 CNS.
For test [16], the system named is DU-145 prostate.
In test [17] the test system is 786-0 renal.
Test [18] concerns EKVX NSCLC.
The subject of test [19] is NCI-H522 lung.
The test system of test [20] is HS 578T breast.

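Five compound concentrations were applied to cells in 96-well plates for 48 hours; endpoints were derived by simple linear interpolation of the resulting dose-response curve. TGI: total growth inhibition.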 Where a SMILES comes first, the peptide text is derived from it. [ ]: non-standard residue; d: D form. The star is where a group is joined. ξ: configuration not given here. NMeF = CN[C@@H](Cc1ccccc1)C(=O)O; NMeV = CN[C@H](C(=O)O)C(C)C; ξNMeV = CNC(C(=O)O)C(C)C; Boc = CC(C)(C)OC(=O)*; OBn = c1ccc(CO*)cc1

In the case of `NC1=Nc2ccccc2Sc2cccc(F)c21`, the TGI in [1] was greater than 100 µM; in [2] it was greater than 100 µM; in test [3] it was 88 µM; in [4], greater than 100 µM; in test [5], greater than 100 µM; in [6], greater than 100 µM. For the same molecule, the TGI in test [7], in test [8], in test [9], in test [10], in test [11] and in test [12] was greater than 100 µM each time. Besides, the TGI in [13], in test [14], in test [15], in [16], in test [17] and in test [18] was greater than 100 µM in each case. The molecule further yielded a TGI in test [19] greater than 100 µM.
Take `CC(=O)Nc1ccc(/C=c2\sc3nnc(-c4cccnc4)n3c2=O)cc1`: the TGI in test [1] came to 46.7 µM; in test [2], 31 µM; in [3] it was 42.9 µM; in test [4] it was 32.1 µM; in test [6], 27.7 µM; in test [7] it was 34.5 µM. Also, the TGI in test [10] was 77.2 µM; in test [11], 57.7 µM; in [12] it was 46.4 µM; in test [13], 57.3 µM; in test [14] it was greater than 100 µM; in test [15] it was greater than 100 µM. In addition, the TGI in test [17] came to 31.4 µM; in test [18], 55.2 µM; in [19] it was 33.2 µM.
Take `CC(C)C(C(=O)N(C)[C@H](C(=O)N1CCC[C@H]1C(=O)N(C)[C@@H](Cc1ccccc1)C(=O)OCc1ccccc1)C(C)C)N(C)C(=O)[C@@H](NC(=O)OC(C)(C)C)C(C)C` (stereo partly drawn) (Boc-V[ξNMeV][NMeV]P[NMeF]-OBn): the TGI in test [1] was greater than 31.6 µM; in test [3], 8.25 µM; in test [4], greater than 31.6 µM; in [5], greater than 31.6 µM; in test [6], greater than 31.6 µM; in [7], greater than 31.6 µM. For the same molecule, the TGI in test [10] was greater than 31.6 µM; in test [11], greater than 100 µM; in test [12], greater than 31.6 µM; in test [13], greater than 31.6 µM; in test [14], greater than 31.6 µM; in [15], greater than 31.6 µM. Moreover, the TGI is greater than 71.3 µM in test [17], greater than 31.6 µM in [18] and greater than 100 µM in test [19].
As for `COc1cc(S(=O)(=O)Nc2ccc(-c3csc(N4C(=O)CSC4c4ccccc4O)n3)cc2)ccc1Cl` (stereo not drawn), the TGI was greater than 100 µM in test [1]; greater than 100 µM in [2]; 49.8 µM in [3]; greater than 100 µM in [4]; greater than 100 µM in [5]; greater than 100 µM in [6]. In addition, the TGI in test [7] is greater than 100 µM; in test [8], greater than 100 µM; in test [9], greater than 100 µM; in test [10], greater than 100 µM; in test [11], 92.2 µM; in [12], greater than 100 µM. The TGI in [15] was greater than 100 µM; in [16] it was greater than 100 µM; in test [17] it was greater than 100 µM; in test [18] it was 85.5 µM; in [19], 55.6 µM.
Turning to `CN(C)CCC[N+]1=Nc2cccc3cccc(c23)N1`, the TGI in [1] is 35.5 µM; in [2], greater than 100 µM; in test [3], 47.5 µM; in test [4], greater than 100 µM; in [5], 47.3 µM; in [6], greater than 100 µM. The TGI in [7] is greater than 100 µM; in [10] it was greater than 100 µM; in test [11], greater than 100 µM; in test [12] it was greater than 100 µM; in test [13] it was greater than 100 µM; in test [14] it was 92.6 µM. Also, the TGI in [15] was greater than 100 µM; in test [17], greater than 100 µM; in test [18], greater than 100 µM; in test [19], 91.2 µM.
In the case of `COC(=O)C(CCC1(C)OCCO1)=[N+]=[N-]`, the TGI in test [1], in [2], in [3], in [4], in test [7] and in [10] was greater than 100 µM throughout. Besides, the TGI in [11], in test [12], in test [13], in test [14], in test [15] and in [17] was greater than 100 µM throughout. Moreover, the TGI in test [18] and in test [19] was greater than 100 µM in each case.
For the molecule `COc1ccc(C2=Nc3ccccc3N=C(SC)C2)cc1`, the TGI was greater than 100 µM in test [1]; greater than 100 µM in test [2]; 43 µM in test [3]; greater than 100 µM in test [4]; greater than 100 µM in [6]; greater than 100 µM in [7]. In addition, the TGI in test [10], in [11], in [12], in [13], in [14] and in test [15] was greater than 100 µM throughout. The TGI in test [17] is greater than 100 µM; in [18] it was greater than 100 µM; in [19], 63.2 µM.
`COc1ccc(NC(=O)C(=O)Cc2ccc([N+](=O)[O-])c([N+](=O)[O-])c2CC(=O)C(=O)Nc2ccc(OC)cc2OC)c(OC)c1`: the TGI in test [1], in [2], in [3], in test [4], in test [5] and in [6] was greater than 100 µM throughout. Moreover, the TGI in test [7], in test [10], in [11], in test [13], in test [14] and in test [15] was greater than 100 µM in each case. For the same molecule, the TGI in [17], in test [18] and in test [19] was greater than 100 µM each time.
Consider `Cc1ccnc(Nc2[nH]c(C(=O)c3ccc(Cl)cc3)c(N)c2C(=S)Nc2ccccc2)c1`, for which the TGI in test [1] was determined as 39 µM; in [2] it was 32.4 µM; in test [3], 64.6 µM; in [4], 34.5 µM; in test [5] it was 31.3 µM; in test [6] it was 25.3 µM. Also, the TGI in test [7] worked out at 28.6 µM; in test [8], 31.5 µM; in test [9] it was 11.1 µM; in test [10], 64.1 µM; in [11], 39.7 µM; in test [12], 21.5 µM. The TGI in test [13] amounted to 69.2 µM; in test [14], 36.9 µM; in test [15] it was 36.8 µM; in [16], 63.7 µM; in test [17], 34.8 µM; in [18], 44.6 µM. The same molecule registered a TGI in [19] of 27.1 µM.
As for `O=C1CN(c2cccc(C(F)(F)F)c2)C(=O)CN1CCN1CC(=O)N(c2cccc(C(F)(F)F)c2)CC1=O`, the TGI in test [1], in test [2], in [3], in test [20], in test [4] and in test [5] was greater than 100 µM throughout. Further, the TGI in test [7], in [8], in test [9], in [10], in [11] and in test [13] was greater than 100 µM each time. In addition, the TGI in test [15], in test [17], in test [18] and in [19] was greater than 100 µM throughout.
On to `CSc1nc(NCc2ccccc2)c2cnn(COCCO)c2n1`, for which the TGI in [1], in test [2], in test [3], in [4], in test [5] and in test [6] was greater than 100 µM in each case. Further, the TGI in test [7] is greater than 100 µM; in test [8], greater than 100 µM; in [9], greater than 100 µM; in test [11], 53.6 µM; in test [12] it was greater than 100 µM; in [13] it was greater than 100 µM. In addition, the TGI in test [15] was greater than 100 µM; in test [16] it was greater than 100 µM; in test [17], greater than 100 µM; in test [18], 63.5 µM; in test [19], greater than 100 µM.
Consider `CCN(C(=O)N[C@H](C(=O)N[C@@H](CSC)C(=O)N[C@@H](C)C(=O)OC)C(C)C)c1ccccc1`, for which the TGI turned out to be 18.2 µM in test [1]; 29.1 µM in test [2]; 38.2 µM in test [4]; 27 µM in test [6]; 27.2 µM in [7]; 31.8 µM in [8]. The TGI was greater than 100 µM in [9]; 33.4 µM in test [10]; 27.8 µM in test [11]; 37.8 µM in [12]; 26.4 µM in test [13]; 36.7 µM in [15]. In addition, the TGI in test [16] was 31.2 µM; in test [17] it was 34.2 µM; in test [18], 28.7 µM; in test [19], 22.3 µM.
With `Brc1ccc(-c2cc3c(cc2C2SCCS2)OCO3)cc1`, the TGI was 86.9 µM in test [1]; greater than 100 µM in test [2]; greater than 100 µM in test [3]; greater than 100 µM in [4]; greater than 100 µM in [7]; greater than 100 µM in test [10]. The TGI is 39.9 µM in [11]; greater than 100 µM in [12]; greater than 100 µM in [13]; 93.3 µM in test [14]; greater than 100 µM in test [15]; greater than 100 µM in test [17]. The TGI in test [18] came out at 75.1 µM; in [19] it was 40.9 µM.
Regarding `O=C1CC(c2ccccc2)n2c(nc3ccccc32)N1` (stereo not drawn), the TGI in test [1], in [2], in [3], in test [20], in test [4] and in test [5] was greater than 100 µM each time. For the same molecule, the TGI in test [6] was greater than 100 µM; in test [7] it was greater than 100 µM; in test [8] it was greater than 100 µM; in test [9] it was greater than 100 µM; in test [10] it was greater than 100 µM; in test [12], 47.9 µM. Further, the TGI in [13], in test [14], in test [15], in test [17], in [18] and in [19] was greater than 100 µM each time.
Consider `CCCCOC(=O)NC(=O)c1cn(CCCOC(=O)CCCCCCCCC(=O)OCCCn2cc(C(=O)NC(=O)OCCCC)c(=O)n(C)c2=O)c(=O)n(C)c1=O`, for which the TGI in [1], in [2], in test [3], in [4], in test [5] and in test [6] was greater than 100 µM in each case. Moreover, the TGI in test [7], in test [10], in test [11], in test [12], in [13] and in [14] was greater than 100 µM each time. Moreover, the TGI in test [15], in [17], in test [18] and in test [19] was greater than 100 µM throughout.
For `O=c1[nH]c2ccc(CC(=S)N3CCOCC3)cc2o1`, the TGI in test [1], in [2], in test [3], in test [20], in test [4] and in [6] was greater than 100 µM each time. For the same molecule, the TGI in test [7], in test [8], in [9], in [11], in test [12] and in test [13] was greater than 100 µM throughout. For the same molecule, the TGI in test [14], in [15], in test [17] and in test [18] was greater than 100 µM throughout.
